“Also recorded” adds a separate entry of the source.
Key:
Format in all cases: cell-based, mouse
Flk1+ MPCs [1] = test: EC colony assay; details: 36 hrs; VEGF-A 50 ng/ml, Y27632 10 μM
Method: The Flk1+ MPCs were plated onto Matrigel-coated plate at a density of 4,000 cells/cm^2, and cultured in differentiation medium supplemented with VEGF-A165 (50 ng/ml) and Y27632 (10┌M). At 36 hrs later, the number of CD144+ EC colonies was counted. Clustering of >5 CD144+ ECs was regarded as one EC colony.

VYI-ECs = test: Matrigel tube forming assay; details: addition of Y27632 10 μM to VEGF-A
Method: The purified VYI-ECs (described in detail in the Results section) were plated on Matrigel-filled plates at a density of 2-4×10^4 cells/cm^2, and were incubated in differentiation medium containing VEGF-A (50 ng/ml) with or without Y27632 (10┌ M). After 12 hrs, the tube structures were observed using Axiovert 25 microscope (Carl Zeiss) and phase-contrast images were taken using DeltaPix infinity X digital camera and DpxView LE software (DeltaPix, Denmark).

ICAM2+ ECs = test: Apoptosis assay (Annexin V/PI) in ICAM2+ ECs
Method: FIGS. 15A-15D. ROCK suppression continuously promotes the expansion of ECs. ICAM2+ ECs were further incubated with PBS (Control), Y27632 (10┌ M), VEGF-A (50 ng/ml; VA) or Y27632 (10┌ M) plus VEGF-A (50 ng/ml) for 2 days, and analyses were performed at day 8.5. (FIG. 15A) Representative FACS analysis showing cell cycle in ICAM2+ ECs at 12 hrs. (FIG. 15B) % of ICAM2+ ECs under each phase of cell cycle at 12 hrs. Each group, n=3. *p<0.01 versus Control; ^#p<0.01 versus VEGF-A. (FIG. 15C) Representative FACS analysis of Annexin V+/PI− apoptotic ECs. (FIG. 15D) % of Annexin V+/PI− ECs. Each group, n=3. *p<0.01 versus Control.
Apoptosis assay was performed as previously described. To determine the cell cycle, BrdU/7-AAD cell cycle analysis was performed according to the manufacturer's instructions (BD Pharmingen™). Briefly, cells were incubated with BrdU (1 mM) for 1 hr, dissociated with dissociation buffer, and stained with anti-CD144 antibody. The cells were then fixed, permeabilized, and fixed once more, followed by 1 hr incubation with DNase I (200 U) at 37┌ C. After incubation with FITC-conjugated anti-BrdU antibody for 20 min at RT, the cells were stained with 7-AAD. The cells were analyzed by FACS Aria II and the data were analyzed using FlowJo software.

Flk1+ MPCs [2] = test: Western blotting of signaling proteins in Flk1+ MPCs
Method: FIGS. 10A-10B. PI3-kinase/Akt signaling and MyPT-MLC signaling are involved in ROCK suppression-induced expansion of ECs. Flk1+ MPCs were incubated with indicated agents for 2 days, and analyses were performed on day 6.5. (FIG. 10A) Immunoblotting for pPTEN, PTEN, pAkt, Akt, pERK, ERK, pMyPT, MyPT, pMLC, MLC, ┌ SMA and GAPDH in Flk1+ MPCs treated with PBS (Control), Y27632 (10┌ M), VEGF-A (50 ng/ml; VA), or VA plus Y27632. The Flk1+ MPCs were cultured for 12 hrs, starved for 6 hrs with or without Y27632, and then treated with VEGF-A (50 ng/ml) for 10 min. Results from four independent trials were similar to each other. (FIG. 10B) Quantitative analyses of phosphorylations of AKT, PTEN, MyPT and MLC. Signal intensities were quantitatively evaluated using Image J software. Intensity of phosphorylated/total form of each protein in Control is regarded as 1 and relative intensities are expressed as fold. The mean of relative values from four independent experiments are represented. *p<0.01 versus Control. ^#p<0.01 versus VEGF-A. N.D represents non-detected.
Cell lysates were separated by SDS-PAGE gel and transferred to PVDF membranes for Western Blot analysis. After blocking with 5% skim milk, the membranes were first incubated with primary antibodies in blocking buffer overnight at 4┌ C, then with HRP-conjugated secondary antibodies for 1 hr at RT. The following primary antibodies were used: anti-RhoA (mouse monoclonal, Cytoskeleton Inc.), anti-ROCK1 (mouse monoclonal, Santa Cruz), anti-ROCK2 (rabbit polyclonal, Santa Cruz), anti-┌-tubulin (mouse monoclonal, Santa Cruz), anti-phospho-PTEN (Ser380/Thr382/383)(clone 44A7, Cell Signaling), anti-PTEN (clone 138G6, Cell Signaling), anti-phospho-Akt (Ser473)(clone 193H12, Cell Signaling), anti-Akt (rabbit polyclonal, Cell Signaling), anti-phospho-ERK (Thr202/Tyr204) (clone 20G11, Cell Signaling), anti-ERK (rabbit monoclonal, Cell Signaling), anti-phospho-MyPT (Thr696) (rabbit polyclonal, Cell Signaling), anti-MyPT (rabbit polyclonal, Cell Signaling), anti-phospho-MLC (Thr18/Ser19) (rabbit polyclonal, Cell Signaling), anti-MLC (rabbit polyclonal, Cell Signaling), anti-┌ SMA (rabbit polyclonal, Novus Biologicals), anti-GAPDH (rabbit polyclonal, Santa Cruz), anti-phospho-VEGFR2 (Tyr1175) (clone 19A10, Cell Signaling), and anti-VEGFR2 (clone 55B11, Cell Signaling). The secondary antibodies used were rabbit anti-mouse IgG-HRP (Santa Cruz) and goat anti-rabbit IgG-HRP (Santa Cruz). Signals were developed with enhanced chemiluminescence HRP substrate (Millipore) and detected using LAS-3000 mini (Fuji film).

[3] = Y27632 10 μM, VEGF-A 50 ng/ml for 10 min
[4] = regardless of VEGF-A stimulation

In the case of `C[C@@H](N)[C@H]1CC[C@H](C(=O)Nc2ccncc2)CC1` [Y27632], the “number of EC colonies and cell number in each colony” value (Flk1+ MPCs [1]) is reported as “increased”, the “increase of formation of vascular networks” value (VYI-ECs) is reported as 1.7 fold and the “apoptosis of ECs” value (ICAM2+ ECs) is reported as “mildly inhibited”. The “phosphorylation of Akt (Ser473)” value (Flk1+ MPCs [2]; [3]) was “phosphorylated”, the “phosphorylation of ERK” value (Flk1+ MPCs [2]; [3]) was “but not ERK” and the “phosphorylation of PTEN (Ser380, Thr382 and Thr383)” value (Flk1+ MPCs [2]; [3]) was “phosphorylated”. The “phosphorylation of MLC” value (Flk1+ MPCs [2]; [4]) was “almost completely reduced; also recorded: inhibits”, the “phosphorylation of MyPT” value (Flk1+ MPCs [2]; [4]) was “almost completely reduced” and the “protein levels of αSMA” value (Flk1+ MPCs [2]; [4]) was “reduced”.

Reference: patent US20150368617A1, “METHOD FOR FORMING ENDOTHELIAL CELLS” (Korea Advanced Institute of Science and Technology (KAIST), priority 2012, published 2015)
